Measurements: BindingDB's records for doi:10.1021/jm010399h (University of Tennessee Health Science Center, 2002)

Target: Integrase (Human immunodeficiency virus 1, UniProt Q7ZJM1)
Assay: Inhibitory activity against HIV-1 Integrase (HIV-1-IN)

Sequence of Integrase (Q7ZJM1 whole entry): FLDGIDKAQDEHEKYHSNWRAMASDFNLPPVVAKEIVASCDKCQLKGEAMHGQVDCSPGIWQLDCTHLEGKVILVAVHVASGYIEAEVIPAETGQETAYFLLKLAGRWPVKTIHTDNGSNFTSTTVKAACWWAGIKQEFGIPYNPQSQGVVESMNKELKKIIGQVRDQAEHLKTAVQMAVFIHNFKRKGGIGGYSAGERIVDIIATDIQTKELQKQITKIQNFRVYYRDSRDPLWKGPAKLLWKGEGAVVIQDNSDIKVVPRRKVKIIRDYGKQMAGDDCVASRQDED

Compound	IC50
O=C(C=Cc1ccccc1)CC(=O)C=Cc1ccccc1 [5-Hydroxy-1,7-diphenylhepta-1,4,6-trien-3-one]	100 µM
COc1ccc(C=CC(=O)CC(=O)C=Cc2ccc(OC)c(OC)c2)cc1OC [(1E,4Z,6E)-1,7-bis(3,4-dimethoxyphenyl)-5-hydroxyhepta-1,4,6-trien-3-one]	100 µM
